Measured values from patent US8071810B2, “C5a receptor antagonists” (Jerini AG, priority 2005, dated 2011).

Biological target: T1, human C5a receptor (CD88) (Homo sapiens, UniProt P21730)
T1 construct: expressed in transfected cells; host or cells: rat basophilic leukemia (RBL) cells, stably transfected
T1 sequence (P21730 1-350): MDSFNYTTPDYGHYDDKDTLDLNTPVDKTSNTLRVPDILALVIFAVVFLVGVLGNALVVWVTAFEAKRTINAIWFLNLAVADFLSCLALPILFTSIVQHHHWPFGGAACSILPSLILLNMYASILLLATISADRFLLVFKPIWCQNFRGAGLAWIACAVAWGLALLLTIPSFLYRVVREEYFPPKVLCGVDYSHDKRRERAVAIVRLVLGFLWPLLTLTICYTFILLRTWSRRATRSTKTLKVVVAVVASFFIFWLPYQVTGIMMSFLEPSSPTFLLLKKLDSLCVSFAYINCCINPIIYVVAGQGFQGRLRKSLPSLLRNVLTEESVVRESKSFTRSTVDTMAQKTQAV
Test: C5a induced enzyme (glucosaminidase) release assay in RBL cells expressing the human C5a receptor (Example 28)
Type: cell-based
Details: IC50 for the inhibition of C5a induced enzyme release, RBL cells with human C5aR
Method: Basophile leukemia cells from rats (RBL), which express the human C5a receptor (CD88), are cultivated in DMEM with 10% fetal calf serum, 100 U/ml penicillin, 100 μg/ml streptomycin and 2 mM glutamin (all constituents are from Biochrome, Berlin) at 37° C. and with 10% CO2 until a confluent layer is obtained. All following details refer to a tissue culture flask with 75 cm^2 surface. The used up medium is removed. The cells are washed with 10 ml PBS (Dulbecco's PBS, Biochrome) and then covered with 3 ml cell dissociation solution (CDS, Sigma). The cells are incubated for 1 minute at room temperature. Then the CDS is removed and the cells are incubated for further 10-15 minutes at 37° C. to detach the cells completely from the flask. 20 μl solution of the compound to be testet are used in the assay. […] The dilution series are prepared in ⅓ or ½ steps. […] The cells are counted and centrifuged (200 g, 10 min). The cell pellet is taken up with pre-heated HAG-CM, and the cell density is adjusted to 2×10^6 Zellen/ml. The cells are incubated for 5 minutes at 37° C. 2.7 μl of a cytochalasin B solution (1000 μg/ml in DMSO, Sigma) are added per ml cell suspension. The Zellen are incubated for another 3 min at 37° C. Then, 75 μl of the cell suspension are added to the 20 μl solution containing the compounds to be tested. […] The cells are again incubated for 10 minutes at 37° C. […] After this the plates are put on ice and centrifuged for 3 minutes at 1200×g and 4° C. […] The plate is incubated for 1 hour at 37° C. […] The IC50 value is determined by solving the four parameter equation y=((A−D)/(1+(x/C)^B))+D.

SMILES	IC50 [nM]
COc1ccc2c(c1)C(C(=O)N(Cc1ccc(N(C)C)cc1)c1ccc(C(C)C)cc1)CCC2 (stereo not shown) [compound 12, 7-methoxy-1,2,3,4-tetrahydro-naphthalin-1-carbonsäure (4-dimethylamino-benzyl)-(4-isopropyl-phenyl)-amide, reference compound]	89

Same assay, conditions: RBL cells with human C5aR; read-out: IC50 for the inhibition of C5a induced enzyme release

SMILES	IC50 [nM]
CCc1c(N)cc(Cl)c(CC)c1NC(=O)N(c1ccc(C(C)C)cc1)[C@H](C)c1ccc(OC)cc1 [compound 56, (R)-3-(3-amino-5-chloro-2,6-diethyl-phenyl)-1-(4-isopropyl-phenyl)-1-[1-(4-methoxy-phenyl)ethyl]-urea]	619
Cc1ccc(CN(Cc2ccccc2)C(=O)c2ccccc2-n2cccc2)cc1 [Compound 8, N-Benzyl-N-(4-methyl-benzyl)-2-pyrrol-1-yl-benzamide, reference compound]	1920
CCc1c(N)cc(Cl)c(CC)c1NC(=O)N(c1ccc(C(C)C)cc1)[C@@H](C)c1ccc(C)cc1 [(S)-3-(3-Amino-5-chlor-2,6-diethyl-phenyl)-1-(4-isopropyl-ph]	32
CCc1c(N)cc(Cl)c(CC)c1NC(=O)N(c1ccc(C(C)C)cc1)[C@@H](C)c1ccc(F)cc1 [(S)-3-(3-Amino-5-chlor-2,6-diethyl-phenyl)-1-[1-(4-fluor-phe]	38
CCc1c(N)cc(Cl)c(CC)c1NC(=O)N(c1ccc(NC)cc1)[C@@H](C)c1ccc(Cl)cc1	3

Same assay, conditions: inhibition of C5a induced enzyme release, RBL cells with human C5aR; read-out: Activity-range (antagonistic activity, IC50 enzyme release)

SMILES	IC50 [nM]
Cc1ccc(CN(Cc2ccccc2)C(=O)c2ccccc2-n2cccc2)cc1 [Compound 8, N-Benzyl-N-(4-methyl-benzyl)-2-pyrrol-1-yl-benzamide, reference compound]	200 to 5000
CCc1c(N)cc(Cl)c(CC)c1NC(=O)N(CC1CCCCC1)c1ccc(C(C)C)cc1 [compound 60, 3-(3-amino-5-chloro-2,6-diethyl-phenyl)-1-cyclohexylmethyl-1-(4-isopropyl-phenyl)-urea]	200 to 5000
CCc1c(Cl)cc(NCc2nccn2C)c(CC)c1NC(=O)N(Cc1ccc(OC)cc1)c1ccc(C(C)C)cc1 [compound 38, 3-{3-chloro-2,6-diethyl-5-[(1-methyl-1H-imidazol-2-ylmethyl)-amino]-phenyl}-1-(4-isopropyl-phenyl)-1-(4-methoxy-benzyl)-urea]	200 to 5000
CCc1c(Cl)cc(NCC(=O)OC)c(CC)c1NC(=O)N(Cc1ccc(OC)cc1)c1ccc(C(C)C)cc1 [compound 55, {5-chloro-2,4-diethyl-3-[3-(4-isopropyl-phenyl)-3-(4-methoxy-benzyl)-ureido]-phenylamino} acetic acid methyl-ester]	200 to 5000
CCc1c(N)cc(Cl)c(CC)c1NC(=O)N(Cc1ccc(C(F)(F)F)cc1)c1ccc(C(C)C)cc1 [compound 49, 3-(3-amino-5-chloro-2,6-diethyl-phenyl)-1-(4-isopropyl-phenyl)-1-(4-trifluormethyl-benzyl)-urea]	200 to 5000
CCc1c(N)cc(Cl)c(CC)c1NC(=O)N(Cc1cnc(OC)nc1OC)c1ccc(C(C)C)cc1 [compound 77, 3-(3-amino-5-chloro-2,6-diethyl-phenyl)-1-(2,4-dimethoxy-pyrimidin-5-ylmethyl)-1-(4-isopropyl-phenyl)-urea]	200 to 5000
CCc1c(N)cc(Cl)c(CC)c1NC(=O)N(Cc1ccc2c(c1)CCO2)c1ccc(C(C)C)cc1 [compound 65, 3-(3-amino-5-chloro-2,6-diethyl-phenyl)-1-(2,3-dihydro-benzofuran-5-ylmethyl)-1-(4-isopropyl-phenyl)-urea]	60 to 200
CCc1ccc(N)c(CC)c1NC(=O)N(CCc1ccccc1)c1ccc(C(C)C)cc1 [compound 51, 3-(3-amino-2,6-diethyl-phenyl)-1-(4-isopropyl-phenyl)-1-phenethyl-urea]	200 to 5000
CCc1c(N)cc(Cl)c(CC)c1NC(=O)N(Cc1ccc(Cl)cc1)c1ccc(NC(C)=O)cc1 [compound 140, N-{4-[3-(3-amino-5-chloro-2,6-diethyl-phenyl)-1-(4-chloro-benzyl)-ureido]-phenyl}-acetamide]	200 to 5000
CCc1ccc(N(C(=O)Nc2c(CC)c(N)cc(Cl)c2CC)C(C[N+](=O)[O-])c2ccccc2)cc1 (stereo not shown) [compound 112, 3-(3-amino-5-chloro-2,6-diethyl-phenyl)-1-(4-ethyl-phenyl)-1-(2-nitro-1-phenyl-ethyl)-urea]	200 to 5000
CCc1c(N)cc(Cl)c(CC)c1NC(=O)N(c1ccc2[nH]ccc2c1)[C@@H](C)c1ccc(Cl)cc1 [compound 141, (S)-3-(3-amino-5-chloro-2,6-diethyl-phenyl)-1-[1-(4-chloro-phenyl)-ethyl]-1-(1H-indol-5-yl)-urea]	< 60
CCc1c(N)cc(Cl)c(CC)c1NC(=O)N(c1ccc(SC)cc1)[C@@H](C)c1ccc(Cl)cc1 [compound 83, (S)-3-(3-amino-5-chloro-2,6-diethyl-phenyl)-1-[1-(4-chloro-phenyl)-ethyl]-1-(4-methylsulfanyl-phenyl)-urea]	60 to 200
CCc1ccc(N)c(CC)c1NC(=O)N(c1ccc(C(C)C)cc1)C1CCc2ccccc21 (stereo not shown) [compound 90, 3-(3-amino-2,6-diethyl-phenyl)-1-indane-1-yl-1-(4-isopropyl-phenyl)-urea]	200 to 5000
CCc1c(N)cc(Cl)c(CC)c1NC(=O)N(Cc1ccc(C)nc1)c1ccc(C(C)C)cc1 [compound 76, 3-(3-amino-5-chloro-2,6-diethyl-phenyl)-1-(4-isopropyl-phenyl)-1-(6-methyl-pyridin-3-ylmethyl)-urea]	60 to 200
CCc1c(Cl)cc(NCC(=O)N(C)C)c(CC)c1NC(=O)N(Cc1ccc(OC)cc1)c1ccc(C(C)C)cc1 [compound 37, 2-{5-chloro-2,4-diethyl-3-[3-(4-isopropyl-phenyl)-3-(4-methoxy-benzyl)-ureido]-phenylamino}-N,N-dimethyl-acetamide]	200 to 5000
COc1ccc2c(c1)C(C(=O)N(Cc1ccc(N(C)C)cc1)c1ccc(C(C)C)cc1)CCC2 (stereo not shown) [compound 12, 7-methoxy-1,2,3,4-tetrahydro-naphthalin-1-carbonsäure (4-dimethylamino-benzyl)-(4-isopropyl-phenyl)-amide, reference compound]	60 to 200
CCc1c(N)cc(Cl)c(CC)c1NC(=O)N(Cc1ccccc1)c1ccc(C(C)C)cc1 [compound 43, 3-(3-amino-5-chloro-2,6-diethyl-phenyl)-1-benzyl-1-(4-isopropyl-phenyl)-urea]	200 to 5000
CCc1ccc(N)c(CC)c1NC(=O)N(Cc1ccc(C)cc1)c1ccc(C(C)C)cc1 [compound 39, 3-(3-amino-2,6-diethyl-phenyl)-1-(4-isopropyl-phenyl)-1-(4-methyl-benzyl)-urea]	200 to 5000
CCc1c(N)cc(Cl)c(CC)c1NC(=O)N(c1ccc(C(C)C)cc1)[C@@H]1CCCc2ccccc21 [compound 41, (R)-3-(3-amino-5-chloro-2,6-diethyl-phenyl)-1-(4-isopropyl-phenyl)-1-(1,2,3,4-tetrahydro-naphthaline-1-yl)-urea]	200 to 5000
CCc1c(N)cc(Cl)c(CC)c1NC(=O)N(Cc1ccc(Cl)cc1)c1ccc(SC(F)(F)F)cc1 [compound 93, 3-(3-amino-5-chloro-2,6-diethyl-phenyl)-1-(4-chloro-benzyl)-1-(4-trifluoromethylsulfanyl-phenyl)-urea]	200 to 5000
CCc1c(Cl)cc(N=O)c(CC)c1NC(=O)N(c1ccc(NC)cc1)[C@@H](C)c1ccc(Cl)cc1 [compound 133, (S)-3-(3-chloro-2,6-diethyl-5-nitroso-phenyl)-1-[1-(4-chloro-phenyl)-ethyl]-1-(4-methylamino-phenyl)-urea]	< 60
CCc1c(N)cc(Cl)c(CC)c1NC(=O)N(Cc1ccccc1)c1ccc(NC)cc1 [compound 129, 3-(3-amino-5-chloro-2,6-diethyl-phenyl)-1-benzyl-1-(4-methylamino-phenyl)-urea]	60 to 200
